Source: patent publication US11116774B2, “Modulators of toll-like receptors for the treatment of HIV” (Gilead Sciences, Inc., priority 2014, dated 2021)
Read-outs that look alike come from different tables or passages of the source.

Assays:
[1] = test system: polyfunctional proliferating CD8 T cells (CFSE low, IFNg+, TNFa+); assay: Induction of HIV-specific polyfunctional CD8 T cells by combination with an IDO1 inhibitor (Example 217); assay type: cell-based, human
Protocol: PBMCs from 4 HIV-infected donors (Donor IDs 180-183) on suppressive cART were isolated, as described previously, stained with CFSE, and treated with 500 ng/ml 15-mer peptide pools derived from overlapping HIV gag, pol, nef, and env consensus peptides (JPT Peptide Technologies GmbH). PBMC cultures were treated with DMSO or the compound of Example 49 (GS-9620) at 0.1 uM. In some cultures treated with Example 49, the IDO1 small molecule inhibitor, INCB024360, was combined at 2 μM. Cells were incubated at 37° C. for 8 days, then split into duplicate sets and stained in DPBS with LIVE/DEAD Fixable Aqua Dead Cell Stain (Life Technologies). The immune recall response was performed as previously described. FACS was performed on a LSR Fortessa (BD Biosciences) and data analysis was done with FlowJo software (TreeStar). Data was plotted and statistical analysis was done with GraphPad Prism software (GraphPad).

[2] = test system: HIV-1 expression in PBMC cultures from HIV-1 infected donors on cART; assay: Induced HIV-1 expression in PBMC cultures from HIV-1 infected donors on cART (Example 208); assay type: cell-based, human; details: Tables 7-11; for fold induction at 0.01 µM / fold induction at 0.156 µM / fold induction at 2.5 µM: Human immunodeficiency virus 1, PBMC; for fold induction at 0.01 µM: read-out: Fold HIV-1 Induction, Geometric Mean, 0.01 μM
Protocol: Isolated PBMCs were treated with various concentrations (0.1, 1, and 10 μM) of the TLR7 modulating compounds (compounds of Example 4 and Example 49) or dimethyl sulfoxide (DMSO) treated (vehicle control) for 4 to 5 days. The cultures were maintained in the presence of antivirals (elvitegravir and efavirenz at 100 nM each) to prevent viral spread and amplification in order to measure initial virus production (latency reversal) created by the TLR7 modulating compounds. At the end of the incubation period cell-free culture supernatants were harvested and HIV-1 RNA levels were quantified by the COBAS® AmpliPrep/COBAS® TaqMan HIV-1 Test, v2.0 (Roche).
Using the method described above in Example 208, HIV-1 expression in PBMC cultures derived from four additional HIV-1 infected donors on cART were tested in the presence of the compounds of Examples 4, 29, 120, 121, 122, 123, 124, resiquimod, and imiquimod.

[3] = read-out: Fold HIV-1 Induction, Geometric Mean, 0.156 μM, donors 152-155
[4] = read-out: Fold HIV-1 Induction, Geometric Mean, 2.5 μM, donors 152-155

Structure (SMILES) | further increase of mean level of polyfunctional proliferating CD8 T cells (TLR7 only vs. TLR7+IDO1) [1] | Donors with ≥2-fold HIV-1 Induction ([2]; 0.01 μM) | Donors with ≥2-fold HIV-1 Induction ([2]; 0.156 μM) | Donors with ≥2-fold HIV-1 Induction ([2]; 2.5 μM) | fold induction at 0.01 µM ([2]; donors 152-155) | fold induction at 0.156 µM [2, 3] | fold induction at 2.5 µM [2, 4] | fold induction at 2.5 µM ([2]; 96 h, read-out: Fold HIV-1 Induction, 2.5 μM, per donor, supernatants Day 4, PBMCs added to pre-plated compounds) | fold induction at 0.156 µM ([2]; 96 h, read-out: Fold HIV-1 Induction, 0.156 μM, per donor, supernatants Day 4, PBMCs added to pre-plated compounds)
NS(=O)(=O)NCCNc1nonc1C(=NO)Nc1ccc(F)c(Br)c1 [INCB024360, reference compound] | 70% |  |  |  |  |  |  |  | 
COCCOc1cc2c([nH]c(=O)n2Cc2ccc(-c3ccc(CN4CCCC4)cc3)cc2)c(N)n1 [Example 120, 4-amino-6-(2-methoxyethoxy)-1-((4′-(pyrrolidin-1-ylmethyl)-[1,1-biphenyl]-4-yl)methyl)-1H-imidazo[4,5-c]pyridin-2(3H)-one] |  | 4 of 4 | 4 of 4 | 4 of 4 | 3.9 | 5.5 | 4 |  | 
CCc1nc2c(N)nc3ccccc3c2n1CCCCNS(C)(=O)=O [Example 123, N-(4-(4-amino-2-ethyl-1H-imidazo[4,5-c]quinolin-1-yl)butyl)methane sulfonamide, reference compound] |  | 2 of 4 | 3 of 4 | 4 of 4 | 1.9 | 3.4 | 5.1 | 3.3 | 
CC(C)Cn1cnc2c(N)nc3ccccc3c21 [imiquimod, reference compound] |  | 4 of 4 | 4 of 4 | 3 of 4 | 4.3 | 5.4 | 4.8 |  | 4.4
COCCOc1nc(N)c2nc(O)n(Cc3ccccc3)c2n1 [Example 122, 6-amino-9-benzyl-2-(2-methoxyethoxy)-9H-purin-8-ol, reference compound] |  | 3 of 4 | 3 of 4 | 4 of 4 | 5 | 4.8 | 6.9 |  | 
CCOCc1nc2c(N)nc3ccccc3c2n1CC(C)(C)O [resiquimod, reference compound] |  |  |  |  | 5 | 6.9 | 7.4 |  | 
Nc1nc(=O)c2sc(=O)n([C@@H]3O[C@H](CO)C[C@H]3O)c2[nH]1 [Example 124, 5-amino-3-((2R,3R,5S)-3-hydroxy-5-(hydroxymethyl)tetrahydrofuran-2-yl)thiazolo[4,5-d]pyrimidine-2,7(3H,4H)-dione, reference compound] |  | 3 of 4 | 2 of 4 | 2 of 4 | 3.7 | 1.8 | 1.6 |  | 
COCCOc1nc(N)c2[nH]c(=O)n(Cc3ccc(-c4ccc(CN5CCCC5)cc4)cc3)c2c1Cl [Example 121, 4-amino-7-chloro-6-(2-methoxyethoxy)-1-((4′-(pyrrolidin-1-ylmethyl)-[1,1-biphenyl]-4-yl)methyl)-1H-imidazo[4,5-c]pyridin-2(3H)-one] |  | 2 of 4 | 2 of 4 | 4 of 4 | 1.3 | 1.3 | 2.9 |  | 
